Assay results published in patent US11760773B2, “Small molecule drug conjugates of gemcitabine monophosphate” (MaveriX Oncology, Inc., priority 2018, dated 2023).

What was measured:
[1] = Comparative dog plasma PK of Int 1-4 versus gemcitabine (study k); format: in vivo; details: male beagle dog; for AUC(0-inf): read-out: AUC0-inf; for Cmax: read-out: Cmax; for MRT inf: read-out: MRT0-inf; for MRT last: read-out: MRT0-last
Description: Objectives: to compare the plasma pharmacokinetics and stability of Int-4 in plasma following single intravenous infusion administration of Int 1-4 at 5 mg/kg and 10 mg/kg versus gemcitabine at 5 mg/kg in the male Beagle dog

[2] = Comparative plasma PK of Int 1-4 versus gemcitabine in mouse (study a); format: in vivo; details: plasma, CD-1 mice; for MRT inf: read-out: MRT0-inf; for MRT last: read-out: MRT0-last
[3] = Comparative plasma PK of Compound 1 versus Int 1-4 in male CD-1 mice (study b); format: in vivo; details: male, CD-1, mouse, iv
Description: Objectives: to compare the plasma pharmacokinetics and stability of Compound 1 with its non-phosphorylated SMDC analog (Int 1-4) and in plasma following a single intravenous infusion administration of Compound 1 at 11.6 mg/kg and 23.2 mg/kg with Int 1-4 (formulation F1 & F2) at 10.0 mg/kg in male CD-1 mice
PK measurements: compare PK parameters C0, CL, Vdss, Cmax, tmax, t1/2, AUC(0-t), AUC(0-inf), MRT(0-t), MRT(0-inf) for Compound 1 and Int 1-4

[4] = Int 1-4 plasma PK in the male cynomolgus monkey (study f); format: in vivo; details: for C0: read-out: C0; for MRT inf: read-out: MRT0-inf; for MRT last: read-out: MRT0-last; for Vd: read-out: Vdss
Description: Objectives: to compare the plasma pharmacokinetics and stability of Int 1-4 in plasma following single intravenous infusion administration of Int 1-4 at 5 mg/kg and 10 mg/kg in the male cynomolgus monkey
PK measurements: compare PK parameters C0, CL, Vdss, Cmax, tmax, t, AUC(0-t), AUC(0-inf), MRT(0-t), MRT(0-inf) for Int 1-4

[5] = Comparative PK of Int 1-4 versus gemcitabine in rat plasma (study i); format: in vivo, Sprague-Dawley rats; details: for half-life: Sprague-Dawley, rat, iv; for MRT inf: read-out: MRT0-inf; for MRT last: read-out: MRT0-last
Text: PK measurements: compare PK parameters C0, CL, Vdss, Cmax, tmax, t1/2, AUC(0-t), AUC(0-inf), MRT(0-t), MRT(0-inf) for Int 1-4 and gemcitabine.

[6] = Int 1-4 and gemcitabine comparative PK in male cynomolgus monkey (study g); format: in vivo; details: plasma, male cynomolgus monkey; for AUC(0-inf): read-out: AUC0-inf; for MRT inf: read-out: MRT0-inf; for MRT last: read-out: MRT0-last; for Vd: read-out: Vdss
Description: Objectives: to compare the plasma pharmacokinetics and stability of Int 1-4 versus gemcitabine in plasma following single intravenous infusion administration of Int 1-4 at 5 mg/kg and 10 mg/kg with equimolar gemcitabine at 2.65 mg/kg and 5.29 mg/kg in male cynomolgous monkeys
PK measurements: compare PK parameters C0, CL, Vdss, Cmax, tmax, t1/2, AUC(0-t), AUC(0-inf), MRT(0-t), MRT(0-inf) for Int 1-4 with gemcitabine

[7] = after iv Int 1-4 5 mg/kg (study k)
[8] = after iv Int 1-4 10 mg/kg (study k)
[9] = after iv gemcitabine 5.29 mg/kg
[10] = mouse, after iv Int 1-4 9.4 mg/kg
[11] = mouse, after iv gemcitabine 5.29 mg/kg
[12] = 10 mg/kg, after iv Int 1-4 10.0 mg/kg, Formulation 1
[13] = 10 mg/kg, after iv Int 1-4 10.0 mg/kg, Formulation 2
[14] = 11.6 mg/kg, after iv Compound 1 11.6 mg/kg
[15] = 23.2 mg/kg, after iv Compound 1 23.2 mg/kg
[16] = after iv Int 1-4 5 mg/kg (study f)
[17] = after iv Int 1-4 10 mg/kg (study f)
[18] = plasma, Sprague-Dawley rat, after iv Int 1-4 10.0 mg/kg
[19] = plasma, Sprague-Dawley rat, after iv gemcitabine 4.47 mg/kg
[20] = after iv Int 1-4 5 mg/kg (study g)
[21] = after iv Int 1-4 10 mg/kg (study g)
[22] = after iv gemcitabine 2.65 mg/kg

In the case of `Nc1ccn([C@@H]2O[C@H](CO)[C@@H](O)C2(F)F)c(=O)n1` [Gemcitabine, gemcitabine], the AUC(0-t) [1, 7] was 2330 ng·h/mL, the half-life [1, 7] was 2.01 h and the AUC(0-inf) [1, 7] was 2390 ng·h/mL. For the same molecule, the Cmax [1, 7] was 872 ng/mL, the MRT inf [1, 7] was 2.7 h and the MRT last [1, 7] was 2.48 h. It also gave an AUC(0-t) [1, 8] of 4140 ng·h/mL, a half-life [1, 8] of 1.6 h and an AUC(0-inf) [1, 8] of 4290 ng·h/mL. It also gave an MRT inf [1, 8] of 2.45 h, an MRT last [1, 8] of 2.16 h and an AUC(0-t) [1, 9] of 8230 ng·h/mL. It also gave a C0 [1, 9] of 11500 ng/mL, a clearance [1, 9] of 11 mL/min/kg and a half-life [1, 9] of 2.04 h. For the same molecule, the AUC(0-inf) [1, 9] was 8600 ng·h/mL, the Cmax [1, 9] was 8620 ng/mL and the MRT last [1, 9] was 2.19 h. The Vd ([1]; after iv gemcitabine 5.29 mg/kg, read-out: Vdss) was 1.61 L/kg, the AUC(0-t) [2, 10] was 64.9 ng·h/mL and the half-life [2, 10] was 0.968 h. The AUC(0-inf) ([2]; mouse, after iv Int 1-4 9.4 mg/kg, read-out: AUC0-inf) was 74.1 ng·h/mL, the Cmax ([2]; mouse, after iv Int 1-4 9.4 mg/kg, read-out: Cmax) was 81.9 ng/mL and the MRT inf [2, 10] was 1.27 h. It also gave an MRT last [2, 10] of 0.875 h, a Tmax ([2]; mouse, after iv Int 1-4 9.4 mg/kg, read-out: Tmax) of 8.34 min and a C0 [2, 11] of 6430 ng/mL. For the same molecule, the clearance [2, 11] was 59 mL/min/kg, the half-life [2, 11] was ~0.9 h and the MRT inf [2, 11] was 0.541 h. For the same molecule, the MRT last [2, 11] was 0.503 h, the Vd ([2]; mouse, after iv gemcitabine 5.29 mg/kg, read-out: Vdss) was 1.84 L/kg and the AUC0-inf/AUC0-last ([2]; after iv Int 1-4 9.4 mg/kg) was 116%. It also gave an AUC0-inf/AUC0-last [2, 9] of 101%, an AUC0-last [2, 9] of 1383 ng·h/mL and an AUC(0-inf) [2, 9] of 1393 ng·h/mL. For the same molecule, the T1/2 [2, 9] was 0.868 h, the AUC(0-t) [3, 12] was 98.6 ng·h/mL and the half-life [3, 12] was 1.62 h. The AUC(0-inf) ([3]; 10 mg/kg, after iv Int 1-4 10.0 mg/kg, Formulation 1, read-out: AUC0-inf) was 120 ng·h/mL, the Cmax ([3]; 10 mg/kg, after iv Int 1-4 10.0 mg/kg, Formulation 1, read-out: Cmax) was 107 ng/mL and the MRT inf ([3]; 10 mg/kg, after iv Int 1-4 10.0 mg/kg, Formulation 1, read-out: MRT0-inf) was 1.98 h. The MRT last ([3]; 10 mg/kg, after iv Int 1-4 10.0 mg/kg, Formulation 1, read-out: MRT0-last) was 1.15 h, the Tmax ([3]; 10 mg/kg, after iv Int 1-4 10.0 mg/kg, Formulation 1, read-out: Tmax) was 3.67 min and the AUC(0-t) [3, 13] was 85.1 ng·h/mL. It also gave a half-life [3, 13] of 1.66 h, an AUC(0-inf) ([3]; 10 mg/kg, after iv Int 1-4 10.0 mg/kg, Formulation 2, read-out: AUC0-inf) of 102 ng·h/mL and a Cmax ([3]; 10 mg/kg, after iv Int 1-4 10.0 mg/kg, Formulation 2, read-out: Cmax) of 93.6 ng/mL. The MRT inf ([3]; 10 mg/kg, after iv Int 1-4 10.0 mg/kg, Formulation 2, read-out: MRT0-inf) was 2.1 h, the MRT last ([3]; 10 mg/kg, after iv Int 1-4 10.0 mg/kg, Formulation 2, read-out: MRT0-last) was 1.25 h and the Tmax ([3]; 10 mg/kg, after iv Int 1-4 10.0 mg/kg, Formulation 2, read-out: Tmax) was 2 min. It also gave an AUC(0-t) [3, 14] of 97.9 ng·h/mL, a half-life [3, 14] of 1.04 h and an AUC(0-inf) ([3]; 11.6 mg/kg, after iv Compound 1 11.6 mg/kg, read-out: AUC0-inf) of 112 ng·h/mL. For the same molecule, the Cmax ([3]; 11.6 mg/kg, after iv Compound 1 11.6 mg/kg, read-out: Cmax) was 152 ng/mL, the MRT inf ([3]; 11.6 mg/kg, after iv Compound 1 11.6 mg/kg, read-out: MRT0-inf) was 1.41 h and the MRT last ([3]; 11.6 mg/kg, after iv Compound 1 11.6 mg/kg, read-out: MRT0-last) was 1.01 h. The Tmax ([3]; 11.6 mg/kg, after iv Compound 1 11.6 mg/kg, read-out: Tmax) was 1.5 min, the AUC(0-t) [3, 15] was 202 ng·h/mL and the half-life [3, 15] was 1.03 h. The AUC(0-inf) ([3]; 23.2 mg/kg, after iv Compound 1 23.2 mg/kg, read-out: AUC0-inf) was 218 ng·h/mL, the Cmax ([3]; 23.2 mg/kg, after iv Compound 1 23.2 mg/kg, read-out: Cmax) was 222 ng/mL and the MRT inf ([3]; 23.2 mg/kg, after iv Compound 1 23.2 mg/kg, read-out: MRT0-inf) was 1.4 h. It also gave an MRT last ([3]; 23.2 mg/kg, after iv Compound 1 23.2 mg/kg, read-out: MRT0-last) of 1.11 h, a Tmax ([3]; 23.2 mg/kg, after iv Compound 1 23.2 mg/kg, read-out: Tmax) of 2 min and a clearance [4, 16] of 3.71 mL/min/kg. For the same molecule, the half-life [4, 16] was 2.82 min, the C0 [4, 16] was 20.5 ng/mL and the MRT inf [4, 16] was 20.5 h. For the same molecule, the MRT last [4, 16] was 0.19 h, the Vd [4, 16] was 0.11 L/kg and the clearance [4, 17] was 15.5 mL/min/kg. For the same molecule, the half-life [4, 17] was 4.8 min, the C0 [4, 17] was 53.4 ng/mL and the MRT inf [4, 17] was 53.4 h. The MRT last [4, 17] was 0.3 h, the Vd [4, 17] was 0.19 L/kg and the half-life ([5]; plasma, 4.47 mg/kg, plasma, Sprague-Dawley rat, after iv gemcitabine 4.47 mg/kg) was ~3.3 h. It also gave a half-life ([5]; plasma, 10 mg/kg, plasma, Sprague-Dawley rat, after iv Int 1-4 10.0 mg/kg) of ~9.43 h, an AUC0-inf/AUC0-last [5, 18] of 235% and an AUC(0-inf) [5, 18] of 6000 ng·h/mL. For the same molecule, the AUC(0-t) [5, 18] was 2760 ng·h/mL, the T1/2 [5, 18] was 9.43 h and the MRT inf [5, 18] was 13.8 h. For the same molecule, the MRT last [5, 18] was 3.38 h, the clearance ([5]; plasma, Sprague-Dawley rat, after iv gemcitabine) was 4.36 mL/min/kg and the AUC0-inf/AUC0-last [5, 19] was 122%. It also gave an AUC(0-inf) [5, 19] of 18000 ng·h/mL, an AUC(0-t) [5, 19] of 14700 ng·h/mL and a C0 [5, 19] of 8410 ng/mL. The T1/2 [5, 19] was 3.26 h, the MRT inf [5, 19] was 4.63 h and the MRT last [5, 19] was 2.82 h. The Vd ([5]; plasma, Sprague-Dawley rat, after iv gemcitabine 4.47 mg/kg, read-out: Vdss) was 1.21 L/kg, the “plasma half-life in rats relative to mice” value ([5]; rat versus mouse plasma, iv gemcitabine) was 3 × and the AUC(0-t) [6, 20] was 5.37 ng·h/mL. The half-life [6, 20] was 0.15 h, the AUC(0-inf) [6, 20] was 8.13 ng·h/mL and the MRT inf [6, 20] was 0.24 h. It also gave an MRT last [6, 20] of 0.15 h, a Vd [6, 20] of 0.349 L/kg and an AUC(0-t) [6, 21] of 16.2 ng·h/mL. It also gave a half-life [6, 21] of 0.18 h, an AUC(0-inf) [6, 21] of 17.5 ng·h/mL and an MRT inf [6, 21] of 0.26 h. For the same molecule, the MRT last [6, 21] was 0.21 h, the AUC(0-t) [6, 22] was 154 ng·h/mL and the C0 [6, 22] was 17000 ng/mL. The clearance [6, 22] was 323 mL/min/kg, the half-life [6, 22] was 0.02 h and the AUC(0-inf) [6, 22] was 154 ng·h/mL. The MRT inf [6, 22] was 0.01 h, the MRT last [6, 22] was 0.01 h and the Vd [6, 22] was 0.221 L/kg.
